The text below walks through data of US20230286973A1, “PROTEIN SECRETION INHIBITORS” (KEZAR LIFE SCIENCES, priority 2020, published 2023).

A word on the EC50: it is the concentration giving half of the maximal effect.

Data set [1] is described as follows: Liver Microsome Stability Assay (mouse). Conditions: mouse liver microsomes, with NADPH, 1.0 uM compound. On the technique in general: Liver microsomes are vesicles of endoplasmic reticulum, rich in cytochrome P450 enzymes.
Method: (§1) Stability of a compound was assessed in the presence of liver microsomes from various sources—mouse, rat, monkey and human liver microsomes. 1.0 uM compound, 0.4% DMSO in 0.1 M Potassium Phosphate with 1.0 mg/mL liver microsomes, were incubated at 37° C. with or without 1 mM NADPH. The samples were quenched at 0, and 30 minutes.
The test system of data set [2] is IL-2-FL/Gaussia Luciferase. Briefly: Dox Induced IL2-FL-Gluc Assay. The format is cell-based. Conditions: for IC50: 24 hr Dox induction, 293FRT/TO cells, read-out: 24 hr Dox Inducible IL2FLGluc 293FRT/TO: Mean IC50; for 24 hr Dox Inducible IL2FLGluc 293FRT/TO: IL2/PD1: ratio of IL2FLGluc IC50 to PD1ssGluc IC50. In outline: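 Compounds in DMSO/medium with doxycycline were applied to a 293 T-REx stable line expressing an IL-2 (aa 1-153)–Gaussia luciferase fusion under tetracycline-regulated control, cells seeded one day earlier; incubation at 37 °C, 5% CO2. Structures drawn without stereochemistry were tested as stereoisomer mixtures.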

Data set [3] relates to HER3-ss+4aa/Gaussia Luciferase. Description: Dox-Induced Her3-ss-Gluc Assay. The class given is cell-based. Conditions: 24 hr Dox induction; 293FRT/TO cells; read-out: 24 hr Dox Inducible Her3(ss + 4)Gluc 293FRT/TO: Mean IC50. In outline: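 Compounds were diluted in DMSO/media containing doxycycline. They were added to Flp-In 293 T-REx cells plated the previous day, then incubated at 37 °C under 5% CO2. These cells stably express, under T-REx control, Gaussia luciferase fused to the HER3 signal sequence plus 4 amino acids.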

Data set [4] in a line: Liver Microsome Stability Assay (human). Conditions: human liver microsomes, with NADPH, 1.0 uM compound.
Method: as §1
Data set [5] concerns multiple myeloma cell line NCI-H929. Briefly: H929 Cell Viability Assay. The class given is cell-based, human. Conditions: Homo sapiens, NCI-H929, 48 h, NCI-H929 cells, Celltiter-Glo. The procedure, abridged:
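Luminescent CellTiter-Glo read-out of viability after a 48 h exposure (37° C, 5% CO2) of NCI-H929 myeloma cells to compound dilutions in RPMI 1640 plus 10% FBS. Data for structures drawn without stereochemistry refer to stereoisomer mixtures.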

Data set [6] deals with multiple myeloma cell line U266B1. Briefly: U266 Cell Viability Assay. The format is cell-based, human. Conditions: Homo sapiens, U-266, 48 h, U266B1 cells, Celltiter-Glo. The procedure, abridged:
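CellTiter-Glo luminescence was read after a 48 h compound exposure (37 °C, 5% CO2) of human U266B1 myeloma cells grown in 10% FBS-supplemented RPMI 1640. Data for structures shown without defined stereochemistry refer to stereoisomer mixtures.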

A short description of data set [7]: Liver Microsome Stability Assay (monkey). Conditions: monkey liver microsomes, with NADPH, 1.0 uM compound.
Method: as §1
Data set [8] deals with PD1-ss+10aa/Gaussia Luciferase. Briefly: Dox-Induced PD1-ss-Gluc Assay. The format is cell-based. Conditions: 24 hr Dox induction; 293FRT/TO cells; read-out: 24 hr Dox Inducible PD1ssGluc 293FRT/TO: Mean IC50. In outline:
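Doxycycline-induced expression of a PD1-ss+10aa/Gaussia luciferase reporter is measured in stable Flp-In 293 T-REx cells. Compound dilutions containing doxycycline are added one day after plating and incubated at 37 °C, 5% CO2. Values for unassigned stereocentres refer to stereoisomer mixtures.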

Data set [9] is described as follows: Liver Microsome Stability Assay (rat). Conditions: rat liver microsomes, with NADPH, 1.0 uM compound.
Method: as §1
In data set [10] the test system is TNFα-FL/Gaussia Luciferase. Description: Dox Induced TNFα-FL-Gluc Assay. The class given is cell-based. Conditions: for IC50: 24 hr Dox induction, 293FRT/TO cells, read-out: 24 hr Dox Inducible TNFaFLGluc 293FRT/TO: Mean IC50; for 24 hr Dox Inducible TNFaFLGluc 293FRT/TO: TNF/PD1: ratio of TNFaFLGluc IC50 to PD1ssGluc IC50. The procedure, abridged:
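Compound was added with doxycycline to cells plated a day earlier, incubating at 37° C under 5% CO2. The reporter line is 293 T-REx expressing a TNFα (1-233)–Gaussia luciferase fusion under tetracycline-regulated control.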

A value given as a limit tells only on which side of the number the result lay.

On to `O=C(Nc1nc([C@H]2CCCN2c2ccc(OC3CCN(C(=O)CO)CC3)cc2)cs1)c1cccn1Cc1ccnc(F)c1` [Compound A139, (R)-1-((2-fluoropyridin-4-yl)methyl)-N-(4-(1-(4-((1-(2-hydroxyacetyl)piperidin-4-yl)oxy)phenyl)pyrrolidin-2-yl)thiazol-2-yl)-1H-pyrrole-2-carboxamide], for which, in [1], the “Liver Microsome Stability (Multiple Species): Mouse - % Remaining after 30 min w/NADPH” value was found to be 26%. Further, the IC50 in data set [2] was 58.3 nM; in data set [3], 37.1 nM; in data set [8] it was 20.3 nM; in [10], 460 nM. Also, the “24 hr Dox Inducible IL2FLGluc 293FRT/TO: IL2/PD1” value in [2] was 2.9. The “Liver Microsome Stability (Multiple Species): Human - % Remaining after 30 min w/NADPH” value in [4] amounted to 30.1%. Besides, the EC50 in data set [5] was 687 nM; in data set [6] it was greater than 25 µM. For the same molecule, the “Liver Microsome Stability (Multiple Species): Monkey - % Remaining after 30 min w/NADPH” value in data set [7] was 10.7%. Also, in data set [9], the “Liver Microsome Stability (Multiple Species): Rat - % Remaining after 30 min w/NADPH” value is given as 41.9%. Besides, the “24 hr Dox Inducible TNFaFLGluc 293FRT/TO: TNF/PD1” value in data set [10] worked out at 22.6.
For `O=C(Nc1nc([C@H]2CCCN2c2ccccc2)cs1)c1cccn1Cc1cc(F)nc(F)c1` [Compound A60, (R)-1-((2,6-difluoropyridin-4-yl)methyl)-N-(4-(1-phenylpyrrolidin-2-yl)thiazol-2-yl)-1H-pyrrole-2-carboxamide], the “Liver Microsome Stability (Multiple Species): Mouse - % Remaining after 30 min w/NADPH” value in [1] turned out to be 48.3%. In addition, the IC50 in data set [2] was determined as 186 nM; in data set [3] it was 131 nM; in data set [8], 63.8 nM; in data set [10], 861 nM. The “24 hr Dox Inducible IL2FLGluc 293FRT/TO: IL2/PD1” value in data set [2] worked out at 2.9. Further, the “Liver Microsome Stability (Multiple Species): Human - % Remaining after 30 min w/NADPH” value in data set [4] is reported as 13.7%. The EC50 was 4720 nM in [5] and greater than 25 µM in data set [6]. The “Liver Microsome Stability (Multiple Species): Monkey - % Remaining after 30 min w/NADPH” value in [7] came to 23.8%. The “Liver Microsome Stability (Multiple Species): Rat - % Remaining after 30 min w/NADPH” value in data set [9] amounted to 19.7%. Further, in data set [10], the “24 hr Dox Inducible TNFaFLGluc 293FRT/TO: TNF/PD1” value is recorded as 13.5.
For `CC(=O)N1CCC(Cc2ccc(N3CCC[C@@H]3c3csc(NC(=O)c4cccn4Cc4ccnc(F)c4)n3)cc2)CC1` [Compound A160, (R)-N-(4-(1-(4-((1-acetylpiperidin-4-yl)methyl)phenyl)pyrrolidin-2-yl)thiazol-2-yl)-1-((2-fluoropyridin-4-yl)methyl)-1H-pyrrole-2-carboxamide], in data set [1], the “Liver Microsome Stability (Multiple Species): Mouse - % Remaining after 30 min w/NADPH” value amounted to 6.28%. Further, the IC50 in data set [2] was determined as 96 nM; in data set [3] it was 82.4 nM; in [8], 48.1 nM; in data set [10] it was 691 nM. Further, the “24 hr Dox Inducible IL2FLGluc 293FRT/TO: IL2/PD1” value in data set [2] amounted to 2. In [4], the “Liver Microsome Stability (Multiple Species): Human - % Remaining after 30 min w/NADPH” value is 0.66%. Also, the values for the EC50 in data set [5] and in data set [6] were 2670 nM and greater than 25 µM, respectively. Further, in [7], the “Liver Microsome Stability (Multiple Species): Monkey - % Remaining after 30 min w/NADPH” value was 0.18%. Further, in data set [9], the “Liver Microsome Stability (Multiple Species): Rat - % Remaining after 30 min w/NADPH” value turned out to be 16.8%. For the same molecule, the “24 hr Dox Inducible TNFaFLGluc 293FRT/TO: TNF/PD1” value in data set [10] was 14.3.
As to `CC(C)n1cc(/C=C/c2csc(NC(=O)c3cccn3Cc3ccnc(F)c3)n2)nc1C#N` [Compound B93, (E)-N-(4-(2-(2-cyano-1-isopropyl-1H-imidazol-4-yl)vinyl)thiazol-2-yl)-1-((2-fluoropyridin-4-yl)methyl)-1H-pyrrole-2-carboxamide], the “Liver Microsome Stability (Multiple Species): Mouse - % Remaining after 30 min w/NADPH” value in data set [1] turned out to be 12.7%. In addition, the IC50 in [2] was 11000 nM; in [3] it was 2730 nM; in data set [8], 686 nM; in [10] it was greater than 25000 nM. Further, the “24 hr Dox Inducible IL2FLGluc 293FRT/TO: IL2/PD1” value in data set [2] came to 16. Further, in [4], the “Liver Microsome Stability (Multiple Species): Human - % Remaining after 30 min w/NADPH” value is recorded as 0.85%. Moreover, the concentration giving a half-maximal response (EC50) in data set [5] was 20900 nM; in data set [6], greater than 25 µM. Also, the “Liver Microsome Stability (Multiple Species): Monkey - % Remaining after 30 min w/NADPH” value in [7] is listed as 0.03%. Also, in data set [9], the “Liver Microsome Stability (Multiple Species): Rat - % Remaining after 30 min w/NADPH” value turned out to be 11.5%. Further, the “24 hr Dox Inducible TNFaFLGluc 293FRT/TO: TNF/PD1” value in data set [10] was greater than 36.4.
Turning to `NC(=O)N1CC(Oc2ccc(N3CCC[C@@H]3c3csc(NC(=O)c4cccn4Cc4ccnc(F)c4)n3)cc2)C1` [Compound A130, (R)-N-(4-(1-(4-((1-carbamoylazetidin-3-yl)oxy)phenyl)pyrrolidin-2-yl)thiazol-2-yl)-1-((2-fluoropyridin-4-yl)methyl)-1H-pyrrole-2-carboxamide], the “Liver Microsome Stability (Multiple Species): Mouse - % Remaining after 30 min w/NADPH” value in data set [1] stood at 53%. The IC50 is 65.8 nM in [2], 27.8 nM in [3], 15.8 nM in data set [8] and 683 nM in [10]. The “24 hr Dox Inducible IL2FLGluc 293FRT/TO: IL2/PD1” value in data set [2] is reported as 4.2. For the same molecule, in [4], the “Liver Microsome Stability (Multiple Species): Human - % Remaining after 30 min w/NADPH” value was found to be 32.5%. Moreover, the values for the EC50 in data set [5] and in data set [6] were 731 nM and greater than 25 µM, respectively. For the same molecule, in [7], the “Liver Microsome Stability (Multiple Species): Monkey - % Remaining after 30 min w/NADPH” value came to 25.4%. Also, the “Liver Microsome Stability (Multiple Species): Rat - % Remaining after 30 min w/NADPH” value in data set [9] was found to be 52.7%. Also, the “24 hr Dox Inducible TNFaFLGluc 293FRT/TO: TNF/PD1” value in [10] was determined as 43.1.
In the case of `Cc1ccc(/C=C/c2csc(NC(=O)c3cccn3Cc3ccncc3)n2)nc1F` [Compound B48, (E)-N-(4-(2-(6-fluoro-5-methylpyridin-2-yl)vinyl)thiazol-2-yl)-1-(pyridin-4-ylmethyl)-1H-pyrrole-2-carboxamide], the “Liver Microsome Stability (Multiple Species): Mouse - % Remaining after 30 min w/NADPH” value in data set [1] is 1.17%. Also, the IC50 in data set [2] was 576 nM; in data set [3], 127 nM; in [8] it was 22.5 nM; in data set [10], 4140 nM. The “24 hr Dox Inducible IL2FLGluc 293FRT/TO: IL2/PD1” value in data set [2] was 26. In data set [4], the “Liver Microsome Stability (Multiple Species): Human - % Remaining after 30 min w/NADPH” value is on record as 8.85%. The concentration for a half-maximal effect (EC50) is greater than 25000 nM in [5] and greater than 25 µM in [6]. In addition, the “Liver Microsome Stability (Multiple Species): Monkey - % Remaining after 30 min w/NADPH” value in [7] was determined as 1.39%. Further, the “Liver Microsome Stability (Multiple Species): Rat - % Remaining after 30 min w/NADPH” value in data set [9] worked out at 1.44%. In addition, the “24 hr Dox Inducible TNFaFLGluc 293FRT/TO: TNF/PD1” value in [10] was 184.
`O=C(Nc1nc([C@H]2CCCN2c2ccc(OC3CCN(C(=O)C(F)F)CC3)cc2)cs1)c1cccn1Cc1ccnc(F)c1` [Compound A91, (R)-N-(4-(1-(4-((1-(2,2-difluoroacetyl)piperidin-4-yl)oxy)phenyl)pyrrolidin-2-yl)thiazol-2-yl)-1-((2-fluoropyridin-4-yl)methyl)-1H-pyrrole-2-carboxamide]: in data set [1], the “Liver Microsome Stability (Multiple Species): Mouse - % Remaining after 30 min w/NADPH” value was found to be 27.4%. Besides, the IC50 was 25 nM in data set [2], 26.5 nM in data set [3], 14.8 nM in [8] and 148 nM in [10]. Further, the “24 hr Dox Inducible IL2FLGluc 293FRT/TO: IL2/PD1” value in data set [2] came to 1.7. The “Liver Microsome Stability (Multiple Species): Human - % Remaining after 30 min w/NADPH” value in [4] worked out at 43%. Besides, the concentration for a half-maximal effect (EC50) in [5] was 346 nM; in [6] it was greater than 25 µM. Moreover, the “Liver Microsome Stability (Multiple Species): Monkey - % Remaining after 30 min w/NADPH” value in [7] worked out at 2.34%. In addition, the “Liver Microsome Stability (Multiple Species): Rat - % Remaining after 30 min w/NADPH” value in data set [9] is reported as 19.7%. The “24 hr Dox Inducible TNFaFLGluc 293FRT/TO: TNF/PD1” value in data set [10] worked out at 10.
